How the values were obtained:
[1] = test system: Early Watergrass, Echinochloa oryzoides (ECHOR); experiment: In-water application in transplanted rice in the greenhouse, visual weed control of ECHOR; assay type: in vivo; conditions: 22 days after application, 0-100 scale
Excerpt: (§1) Weed seeds or nutlets of the desired test plant species were planted in puddled soil (mud) prepared by mixing a shredded, non-sterilized mineral soil (50.5 percent silt, 25.5 percent clay, and 24 percent sand, with a pH of about 7.6 and an organic matter content of about 2.9 percent) and water at a 1:1 volumetric ratio. The prepared mud was dispensed in 365 milliliter (mL) aliquots into 16-ounce (oz.) non-perforated plastic pots with a surface area of 86.59 square centimeters (cm^2) leaving a headspace of 3 centimeters (cm) in each pot. Rice seeds were planted in Sun Gro MetroMix® 306 planting mixture, which typically has a pH of 6.0 to 6.8 and an organic matter content of about 30 percent, in plastic plug trays. Seedlings at the second or third leaf stage of growth were transplanted into 860 mL of mud contained in 32-oz. non-perforated plastic pots with a surface area of 86.59 cm^2 4 days prior to herbicide application. The paddy was created by filling the headspace of the pots with 2.5 to 3 cm of water. When required to ensure good germination and healthy plants, a fungicide treatment and/or other chemical or physical treatment was applied. The plants were grown for 4-22 days in a greenhouse with an approximate 14 hour (h) photoperiod which was maintained at about 29° C. during the day and about 26° C. during the night. Nutrients were added as Osmocote® (17:6:10, N:P:K+minor nutrients) at 2 grams (g) per 16-oz. pot and 4 g per 32-oz. pot. Water was added on a regular basis to maintain the paddy flood, and supplemental lighting was provided with overhead metal halide 1000-Watt lamps as necessary. The plants were employed for testing when they reached the first through fourth true leaf stage. Treatments of penoxsulam and benzobicyclon consisted of penoxsulam and benzobicyclon, applied alone or in combination. Treatments of clomazone and benzobicyclon consisted of clomazone and benzobicyclon, applied alone or in combination. Penoxsulam was formulated as Grasp® SC, clomazone was formulated as Command® 3ME, and benzobicyclon was formulated as 3.5% flowable or as technical grade material. Treatment requirements for each compound or herbicidal component were calculated based upon the rates being tested, the concentration of active ingredient or acid equivalent in the formulation, an application volume of 2 mL per component per pot, and an application area of 86.59 cm^2 per pot. For formulated compounds, a measured amount was placed in an individual 100 or 200 mL glass vial and was dissolved in a volume of 1.25% volume per volume (v/v) Agri-Dex® crop oil concentrate to obtain application solutions. […] The results measured at 22 days following application of the compositions are provided in Table 1 (Penoxsulam and Benzobicyclon) and Table 2 (Clomazone and Benzobicyclon).

[2] = test system: Purple Nutsedge, Cyperus rotundus (CYPRO); experiment: In-water application in transplanted rice in the greenhouse, visual weed control of CYPRO; assay type: in vivo; conditions: 22 days after application, 0-100 scale
Excerpt: as §1, with “Nutrients were added as Osmocote® (17:6:10, N:P:K+minor nutrients) at 2 grams (g) per 16-oz. pot and 4 g per 32-oz. pot. Water was added on a regular basis to maintain the paddy flood, and supplemental lighting was provided with overhead metal halide 1000-Watt lamps as necessary. The plants were employed for testing when they reached the first through fourth true leaf stage. Treatments of penoxsulam and benzobicyclon consisted of penoxsulam and benzobicyclon, applied alone or in combination. Treatments of clomazone and benzobicyclon consisted of clomazone and benzobicyclon, applied alone or in combination. Penoxsulam was formulated as Grasp® SC, clomazone was formulated as Command® 3ME, and benzobicyclon was formulated as 3.5% flowable or as technical grade material.” left out

[3] = Benzobicyclon 100 g ai/ha alone

CS(=O)(=O)c1ccc(C(=O)C2=C(Sc3ccccc3)C3CCC(C3)C2=O)c(Cl)c1 (stereo not shown) [Benzobicyclon, 3-(2-chloro-4-mesylbenzoyl)-2-phenylthiobicyclo[3.2.1]oct-2-en-4-one]
% Visual Weed Control 22DAA ECHOR Observed ([1]; Benzobicyclon 25 g ai/ha alone): 0%
% Visual Weed Control 22DAA ECHOR Observed ([1]; Benzobicyclon 50 g ai/ha alone): 10%
% Visual Weed Control 22DAA ECHOR Observed [1, 3]: 15%
% Visual Weed Control 22DAA CYPRO Observed ([2]; Benzobicyclon 50 g ai/ha alone): 10%
% Visual Weed Control 22DAA CYPRO Observed [2, 3]: 30%

CC1(C)CON(Cc2ccccc2Cl)C1=O [Clomazone, 2-[(2-chlorophenyl)methyl]-4,4-dimethyl-3-isoxazolidinone]
% Visual Weed Control 22DAA CYPRO Observed ([2]; Clomazone 112 g ai/ha alone): 0%

COc1cnc(OC)n2nc(NS(=O)(=O)c3c(OCC(F)F)cccc3C(F)(F)F)nc12 [Penoxsulam]
% Visual Weed Control 22DAA ECHOR Observed ([1]; Penoxsulam 10 g ai/ha alone): 85%

From US10701934B2, “Synergistic weed control from applications of penoxsulam and benzobicyclon or clomazone and benzobicyclon” (Dow AgroSciences LLC, priority 2013, dated 2020)
